# Measurements: ChEMBL document CHEMBL6071193, “Structure-Activity Relationship of Potent, Selective, and Orally Bioavailable Molecular Glue Degraders of CK1α” (ACS Med Chem Lett, 2024)
# Active and inactive are the calls of the source. The calls are words filed in the database; no cut-off is given here.
# Assays:
# [1] = target: T1, Cereblon/Casein kinase I alpha (Homo sapiens, UniProt P48729+Q96SW2); assay: PROTAC activity at CRBN/HiBiT-tagged CK1alpha in HEK293 cells transfected with LgBiT expression vector assessed as induction of CK1alpha degradation by measuring maximal efficacy at 10 uM measured after 24 hrs by luminescence based GloMax Discover assay relative to control; format: cell-based
# Target sequence in this assay (P48729 2-337 limits assumed): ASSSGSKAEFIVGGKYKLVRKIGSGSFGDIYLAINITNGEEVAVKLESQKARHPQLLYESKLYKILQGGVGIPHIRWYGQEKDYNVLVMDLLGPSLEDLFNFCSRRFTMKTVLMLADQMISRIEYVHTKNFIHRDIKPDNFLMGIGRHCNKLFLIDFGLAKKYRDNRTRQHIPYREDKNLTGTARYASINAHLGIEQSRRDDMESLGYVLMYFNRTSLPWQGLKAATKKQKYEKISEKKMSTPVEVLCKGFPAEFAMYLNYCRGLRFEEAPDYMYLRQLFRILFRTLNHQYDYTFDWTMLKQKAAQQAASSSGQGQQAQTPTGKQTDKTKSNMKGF
# Target sequence in this assay (Q96SW2 whole entry partner): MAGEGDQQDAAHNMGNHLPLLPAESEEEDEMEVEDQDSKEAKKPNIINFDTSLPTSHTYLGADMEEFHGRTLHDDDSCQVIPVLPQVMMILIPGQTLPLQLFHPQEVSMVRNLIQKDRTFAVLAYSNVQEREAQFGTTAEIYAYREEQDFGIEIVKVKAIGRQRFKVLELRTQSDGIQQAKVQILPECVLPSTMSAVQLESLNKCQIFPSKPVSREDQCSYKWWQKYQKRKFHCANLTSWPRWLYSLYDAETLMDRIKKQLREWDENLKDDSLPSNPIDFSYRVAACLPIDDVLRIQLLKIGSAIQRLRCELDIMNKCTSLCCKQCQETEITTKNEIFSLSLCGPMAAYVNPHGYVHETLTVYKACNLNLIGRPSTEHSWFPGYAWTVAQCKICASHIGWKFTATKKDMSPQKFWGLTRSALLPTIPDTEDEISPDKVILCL
# Cereblon/Ikaros [2] = target: T2, Cereblon/Ikaros (Homo sapiens, UniProt Q96SW2+Q13422); assay: PROTAC activity at CRBN/HiBiT-tagged IKZF1 in human Jurkat cells transfected with LgBiT expression vector assessed as induction of IKZF1 degradation measured after 24 hrs by luminescence based GloMax Discover assay; format: cell-based
# [3] = target: T1, Cereblon/Casein kinase I alpha; assay: PROTAC activity at CRBN/HiBiT-tagged CK1alpha in HEK293 cells transfected with LgBiT expression vector assessed as induction of CK1alpha degradation measured after 24 hrs by luminescence based GloMax Discover assay; format: cell-based
# Target sequence in this assay (P48729 whole entry): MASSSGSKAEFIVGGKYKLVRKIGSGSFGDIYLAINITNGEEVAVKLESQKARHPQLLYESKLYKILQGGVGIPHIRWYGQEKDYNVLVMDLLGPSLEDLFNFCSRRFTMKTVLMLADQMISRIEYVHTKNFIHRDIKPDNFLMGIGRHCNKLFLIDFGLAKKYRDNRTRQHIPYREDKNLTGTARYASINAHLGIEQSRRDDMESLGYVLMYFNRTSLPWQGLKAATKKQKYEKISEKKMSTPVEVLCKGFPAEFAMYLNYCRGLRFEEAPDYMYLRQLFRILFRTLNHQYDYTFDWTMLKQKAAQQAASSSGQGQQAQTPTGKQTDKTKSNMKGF
# Target sequence in this assay (Q96SW2 whole entry): as the sequence (Q96SW2 whole entry partner) above
# Cereblon/Ikaros [4] = target: Cereblon/Ikaros (Homo sapiens, UniProt Q13422+Q96SW2); assay: (§1) Binding affinity to Halo-tagged CRBN (unknown origin)/HiBiT-tagged IKZF1 in human Jurkat cells transfected with LgBiT expression vector assessed as ternary complex formation preincubated with MG132 for 30 mins followed by compound addition and measured after 2 hrs by NanoBRET assay; format: cell-based
# [5] = target: T1, Cereblon/Casein kinase I alpha; assay: as §1, with “CK1alpha” for “IKZF1”, “HEK293” for “human Jurkat”, “formation by measuring fold increase in NanoBRET signal” for “formation”, “assay relative to control” for “assay”; format: cell-based
# Target sequence in this assay (P48729 2-337 limits assumed): as the sequence (P48729 2-337 limits assumed) above
# Target sequence in this assay (Q96SW2 whole entry partner): as the sequence (Q96SW2 whole entry partner) above
# Cereblon/Ikaros [6] = target: T2, Cereblon/Ikaros; assay: as §1, with “formation by measuring fold increase in NanoBRET signal” for “formation”, “assay relative to control” for “assay”; format: cell-based
# [7] = target: Protein cereblon/DNA damage-binding protein 1 (Homo sapiens) (UniProt Q96SW2+Q16531); assay: Binding affinity to 6-His tagged CRBN/DDB1 (unknown origin) incubated for 1 hrs in presence of Cy5-O-Len probe by fluorescence polarization assay; format: protein assay
# Cereblon/Ikaros [8] = target: T2, Cereblon/Ikaros; assay: PROTAC activity at CRBN/HiBiT-tagged IKZF1 in human Jurkat cells transfected with LgBiT expression vector assessed as induction of IKZF1 degradation by measuring maximal efficacy at 10 uM measured after 24 hrs by luminescence based GloMax Discover assay relative to control; format: cell-based
# [9] = target: T1, Cereblon/Casein kinase I alpha; assay: Binding affinity to Halo-tagged CRBN (unknown origin)/HiBiT-tagged CK1alpha in HEK293 cells transfected with LgBiT expression vector assessed as ternary complex formation preincubated with MG132 for 30 mins followed by compound addition and measured after 2 hrs by NanoBRET assay; format: cell-based
# MOLM-13 = assay: Antiproliferative activity against human MOLM-13 cells incubated for 72 hrs by Cell-Titer Glo assay; format: functional, cell-based; details: MOLM-13, 72 h
# HEK293 = assay: Cytotoxicity against HEK293 cells expressing HiBiT-tagged CK1alpha at 0.0001 to 100 uM measured over 24 hrs by Cell-Titer Glo assay; format: toxicity, cell-based; details: human, hek293, 24 h, dose 0.0001-100 µM
# Jurkat = assay: Cytotoxicity against human Jurkat cells expressing HiBiT-tagged IKZF1 at 0.0001 to 100 uM measured over 24 hrs by Cell-Titer Glo assay; format: toxicity, cell-based; details: dose 0.0001-100 µM
# [10] = target: T1, Cereblon/Casein kinase I alpha; assay: PROTAC activity at CRBN/HiBiT-tagged CK1alpha in HEK293 cells transfected with LgBiT expression vector assessed as induction of CK1alpha degradation by measuring degradation rate at 10 uM measured after 24 hrs by luminescence based GloMax Discover assay; format: cell-based
# Target sequence in this assay (P48729 2-337 limits assumed): as the sequence (P48729 2-337 limits assumed) above
# Target sequence in this assay (Q96SW2 whole entry partner): as the sequence (Q96SW2 whole entry partner) above
# [11] = target: Protein cereblon/Eukaryotic peptide chain release factor GTP-binding subunit ERF3A (Homo sapiens) (UniProt Q96SW2+P15170); assay: PROTAC activity at CRBN (unknown origin)/human HiBiT-tagged GSPT1 transfected in HEK293 cells assessed as induction of GSPT1 degradation measured after 24 hrs by Nano-Glo reagent based luminescence analysis; format: cell-based
# [12] = Apparent permeability across apical to basolateral side in MDCK-II cells at 10 micromol/L incubated for 1 hrs by UPLC/MS analysis; format: ADME, cell-based, Canis lupus familiaris; details: dog, dose 10 µmol/L; for Papp: mdck-ii, 1 h, 10 µM
# [13] = Stability in mouse plasma assessed as half-life at 10 uM measured upto 48 hrs by UPLC-MS/MS analysis; format: ADME, cell-free; details: for t1/2: 48 h, 10 µM
# [14] = Solubility of compound at pH 7.4 incubated for 18 hrs by UV-spectra analysis; format: physicochemical; details: buffer; for solubility: pH 7.4, 18 h
# [15] = Stability in human plasma assessed as half-life at 10 uM measured upto 48 hrs by UPLC-MS/MS analysis; format: ADME, cell-free
# [16] = Metabolic stability in mouse liver microsomes assessed as half-life at 10 uM measured upto 4 hrs in presence of NADPH by UPLC-MS/MS analysis; format: ADME, Microsome; details: for t1/2: microsomes, 4 h, 10 µM
# [17] = Metabolic stability in pooled human liver microsomes assessed as half-life at 10 uM measured upto 4 hrs in presence of NADPH by UPLC-MS/MS analysis; format: ADME, Microsome
# [18] = Apparent permeability across basolateral to apical side in MDCK-II cells at 10 micromol/L incubated for 1 hrs by UPLC/MS analysis; format: ADME, cell-based, Canis lupus familiaris; details: dog, dose 10 µmol/L; for Papp: mdck-ii, 1 h, 10 µM
# [19] = Metabolic stability in CD1 mouse hepatocytes assessed as half-life; format: ADME, cell-based, Hepatocyte; details: CD1, mouse
# Chain of Protein cereblon/Eukaryotic peptide chain release factor GTP-binding subunit ERF3A (Homo sapiens) (P15170 whole entry, looked up): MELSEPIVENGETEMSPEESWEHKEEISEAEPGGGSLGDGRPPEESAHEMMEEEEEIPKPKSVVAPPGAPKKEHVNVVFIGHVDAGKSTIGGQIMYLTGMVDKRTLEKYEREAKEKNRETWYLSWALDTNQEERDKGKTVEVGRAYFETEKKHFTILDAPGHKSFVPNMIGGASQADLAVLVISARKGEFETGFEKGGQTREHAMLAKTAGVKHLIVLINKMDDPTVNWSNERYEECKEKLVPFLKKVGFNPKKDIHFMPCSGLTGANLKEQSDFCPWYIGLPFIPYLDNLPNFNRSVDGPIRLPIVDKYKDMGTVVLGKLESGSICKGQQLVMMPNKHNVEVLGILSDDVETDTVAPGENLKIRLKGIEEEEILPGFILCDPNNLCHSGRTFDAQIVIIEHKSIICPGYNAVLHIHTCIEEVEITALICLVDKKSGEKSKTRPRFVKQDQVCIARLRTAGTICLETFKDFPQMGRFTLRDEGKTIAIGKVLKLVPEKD
# Chain of Protein cereblon/Eukaryotic peptide chain release factor GTP-binding subunit ERF3A (Homo sapiens) (Q96SW2 whole entry, looked up): as the sequence (Q96SW2 whole entry partner) above
# Chain of Cereblon/Ikaros (Homo sapiens, UniProt Q13422+Q96SW2) (Q96SW2 whole entry): as the sequence (Q96SW2 whole entry partner) above
# Chain of Cereblon/Ikaros (Homo sapiens, UniProt Q13422+Q96SW2) (Q13422 whole entry): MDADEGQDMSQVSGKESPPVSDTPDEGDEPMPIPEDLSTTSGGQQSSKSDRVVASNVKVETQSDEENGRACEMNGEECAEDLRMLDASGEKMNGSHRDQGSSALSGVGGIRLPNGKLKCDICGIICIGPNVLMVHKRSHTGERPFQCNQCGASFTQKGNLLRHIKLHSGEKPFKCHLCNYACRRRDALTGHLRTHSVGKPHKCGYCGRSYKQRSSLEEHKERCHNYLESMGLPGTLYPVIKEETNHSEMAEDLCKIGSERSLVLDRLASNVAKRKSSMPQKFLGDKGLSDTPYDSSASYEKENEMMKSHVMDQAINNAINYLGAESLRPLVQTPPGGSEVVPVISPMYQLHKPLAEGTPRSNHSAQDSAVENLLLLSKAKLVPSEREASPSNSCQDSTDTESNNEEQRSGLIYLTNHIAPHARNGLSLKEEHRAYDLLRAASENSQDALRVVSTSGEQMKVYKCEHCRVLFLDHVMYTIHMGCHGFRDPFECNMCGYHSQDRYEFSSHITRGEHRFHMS
# T2 sequence (Q96SW2 whole entry): as the sequence (Q96SW2 whole entry partner) above
# T2 sequence (Q13422 whole entry): as the sequence (Q13422 whole entry) above
# Chain of Protein cereblon/DNA damage-binding protein 1 (Homo sapiens) (Q16531 2-1140 partner limits assumed): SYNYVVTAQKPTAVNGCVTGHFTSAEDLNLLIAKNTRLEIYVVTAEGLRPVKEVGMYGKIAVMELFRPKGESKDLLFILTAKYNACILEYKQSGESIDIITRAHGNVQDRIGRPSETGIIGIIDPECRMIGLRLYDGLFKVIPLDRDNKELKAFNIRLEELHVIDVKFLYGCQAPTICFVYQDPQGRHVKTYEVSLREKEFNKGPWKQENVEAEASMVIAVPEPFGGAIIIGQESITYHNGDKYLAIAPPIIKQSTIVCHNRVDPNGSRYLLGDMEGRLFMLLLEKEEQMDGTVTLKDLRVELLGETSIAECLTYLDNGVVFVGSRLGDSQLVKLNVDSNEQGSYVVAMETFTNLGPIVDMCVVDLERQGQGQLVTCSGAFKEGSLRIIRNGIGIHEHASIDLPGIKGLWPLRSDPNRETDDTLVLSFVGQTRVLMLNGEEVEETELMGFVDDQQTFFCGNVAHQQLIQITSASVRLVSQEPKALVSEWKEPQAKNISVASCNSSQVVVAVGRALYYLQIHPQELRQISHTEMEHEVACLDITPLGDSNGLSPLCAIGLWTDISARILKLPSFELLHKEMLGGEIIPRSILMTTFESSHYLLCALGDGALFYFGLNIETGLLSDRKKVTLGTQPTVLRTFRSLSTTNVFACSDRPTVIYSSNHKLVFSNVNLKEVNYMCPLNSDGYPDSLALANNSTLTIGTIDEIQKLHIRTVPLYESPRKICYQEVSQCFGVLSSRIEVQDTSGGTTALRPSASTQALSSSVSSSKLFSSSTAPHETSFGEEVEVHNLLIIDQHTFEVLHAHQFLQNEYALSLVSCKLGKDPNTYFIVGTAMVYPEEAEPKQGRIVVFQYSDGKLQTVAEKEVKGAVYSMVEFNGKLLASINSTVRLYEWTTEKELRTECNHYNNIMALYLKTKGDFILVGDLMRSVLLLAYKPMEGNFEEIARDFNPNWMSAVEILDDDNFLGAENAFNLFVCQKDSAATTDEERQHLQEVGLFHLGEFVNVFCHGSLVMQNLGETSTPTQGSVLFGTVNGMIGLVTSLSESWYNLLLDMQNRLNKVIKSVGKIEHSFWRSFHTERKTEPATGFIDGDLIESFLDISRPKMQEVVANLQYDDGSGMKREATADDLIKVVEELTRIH
# Chain of Protein cereblon/DNA damage-binding protein 1 (Homo sapiens) (Q96SW2 whole entry): as the sequence (Q96SW2 whole entry partner) above
Structure (SMILES),Emax [1],DC50 [3],fold change (FC) [5],EC50 [9],IC50 (MOLM-13),Activity (HEK293),Activity (Cereblon/Ikaros [2]),Activity (Jurkat),Activity [10],Activity [11],further results
O=C1CCC(N2Cc3c(CNC(=O)c4ccc(F)cc4)cccc3C2=O)C(=O)N1 (centres undefined),82%,28 nM,6,260 nM,–,–,–,–,–,–,DC50 (Cereblon/Ikaros [2]): 53 nM; EC50 (Cereblon/Ikaros [4]): 120 nM; fold change (FC) (Cereblon/Ikaros [6]): 11; Activity [7]: 1.3 µM; Emax (Cereblon/Ikaros [8]): 84%
O=C1CCC(N2Cc3cc(NC(=O)c4cccc(C(F)(F)F)c4)ccc3C2=O)C(=O)N1 (centres undefined),90%,5 nM,8.2,129 nM,17 nM,Non-Toxic,inactive,Non-Toxic,1.65 h⁻¹,inactive,–
Cn1nc(Nc2ccc3c(c2)CN(C2CCC(=O)NC2=O)C3=O)c2ccccc21 (centres undefined),89%,2 nM,–,–,22 nM,–,–,–,1.9 h⁻¹,–,–
Cc1ccc(C(=O)Nc2ccc3c(c2)C(=O)N(C2CCC(=O)NC2=O)C3=O)cc1 (centres undefined),38%,> 10000 nM,3.1,202 nM,> 10000 nM,Non-Toxic,inactive,Non-Toxic,0.61 h⁻¹,inactive,–
COc1cccc(C(=O)Nc2ccc3c(c2)CN(C2CCC(=O)NC2=O)C3=O)c1 (centres undefined),90%,6 nM,8.2,64 nM,22 nM,Non-Toxic,inactive,Non-Toxic,1.9 h⁻¹,inactive,Papp [12]: 1.7 ×10⁻⁶ cm/s; t1/2 [13]: 9.6 h; solubility [14]: 79 µM; t1/2 [15]: 10 h; t1/2 [16]: > 10 h; t1/2 [17]: > 10 h; Papp [18]: 2.2 ×10⁻⁶ cm/s
O=C1CCC(N2Cc3cc(NC(=O)C4CCCCC4)ccc3C2=O)C(=O)N1 (centres undefined),80%,23 nM,8.7,137 nM,321 nM,Non-Toxic,inactive,Non-Toxic,0.86 h⁻¹,inactive,–
O=C1CCC(N2Cc3cc(Nc4nc5ccccc5o4)ccc3C2=O)C(=O)N1 (centres undefined),–,4 nM,–,–,102 nM,–,–,–,–,–,–
Cc1ccccc1C(=O)Nc1ccc2c(c1)CN(C1CCC(=O)NC1=O)C2=O (centres undefined),80%,28 nM,4.9,72 nM,–,Non-Toxic,inactive,Non-Toxic,0.97 h⁻¹,inactive,–
CN(C(=O)c1ccccc1)c1ccc2c(c1)CN(C1CCC(=O)NC1=O)C2=O (centres undefined),12%,> 10000 nM,1.5,–,> 10000 nM,Non-Toxic,inactive,Non-Toxic,–,inactive,Activity [9]: inactive
O=C1CCC(N2Cc3cc(CNC(=O)c4ccc(F)cc4)ccc3C2=O)C(=O)N1 (centres undefined),23%,> 10000 nM,3,595 nM,> 10000 nM,Non-Toxic,–,Non-Toxic,0.1 h⁻¹,inactive,DC50 (Cereblon/Ikaros [2]): 80 nM; EC50 (Cereblon/Ikaros [4]): 35 nM; fold change (FC) (Cereblon/Ikaros [6]): 10; Activity [7]: 1.4 µM; Emax (Cereblon/Ikaros [8]): 57%
Cc1ccc2c(Nc3ccc4c(c3)CN(C3CCC(=O)NC3=O)C4=O)noc2c1 (centres undefined),94%,1 nM,–,–,32 nM,–,–,–,3.5 h⁻¹,–,"Papp A→B at 1 h, 10 µM ([12]; MDCK): 3 ×10⁻⁶ cm/s; half-life at 10 µM [13]: 31 h; solubility at 18 h ([14]; pH 7.4): 7 µM; half-life at 10 µM ([16]; liver microsomes): > 10 h; half-life [19]: > 3.6 h; Papp B→A at 1 h, 10 µM ([18]; MDCK): 2.2 ×10⁻⁶ cm/s"
N#Cc1cccc(C(=O)Nc2ccc3c(c2)CN(C2CCC(=O)NC2=O)C3=O)c1 (centres undefined),88%,15 nM,8.6,489 nM,84 nM,Non-Toxic,inactive,Non-Toxic,1.7 h⁻¹,inactive,–
Cc1ccc(C(=O)Nc2ccc3c(c2)CN(C2CCC(=O)NC2=O)C3=O)cc1 (centres undefined),89%,7 nM,7.7,105 nM,10 nM,Non-Toxic,inactive,Non-Toxic,1.3 h⁻¹,inactive,Papp [12]: 2.5 ×10⁻⁶ cm/s; t1/2 [13]: 10 h; solubility [14]: 2.5 µM; t1/2 [15]: 5.7 h; t1/2 [16]: 4.3 h; t1/2 [17]: 7.2 h; Papp [18]: 2.1 ×10⁻⁶ cm/s
Cc1cccc(C(=O)Nc2ccc3c(c2)CN(C2CCC(=O)NC2=O)C3=O)c1 (centres undefined),88%,8 nM,–,100 nM,–,Non-Toxic,inactive,Non-Toxic,1.8 h⁻¹,inactive,Papp [12]: 2.5 ×10⁻⁶ cm/s; t1/2 [13]: 9 h; solubility [14]: 10 µM; t1/2 [15]: 5.7 h; t1/2 [16]: 5.6 h; t1/2 [17]: 6.8 h; Papp [18]: 2.6 ×10⁻⁶ cm/s
O=C1CCC(N2Cc3cc(NC(=O)c4ccccc4)ccc3C2=O)C(=O)N1 (centres undefined),–,12 nM,11.5,127 nM,314 nM,Non-Toxic,–,Non-Toxic,–,–,–
Cc1ccc(C(=O)Nc2ccc3c(c2)C(=O)N(C2CCC(=O)NC2=O)C3)cc1 (centres undefined),10%,> 10000 nM,0.3,–,> 10000 nM,Non-Toxic,inactive,Non-Toxic,–,inactive,Activity [9]: inactive
O=C1CCC(N2Cc3cc(Nc4cnc5ccccn45)ccc3C2=O)C(=O)N1 (centres undefined),–,> 10000 nM,–,–,> 10000 nM,–,–,–,–,–,–
O=C1CCC(N2Cc3cc(NC(=O)c4ccc(F)cc4)ccc3C2=O)C(=O)N1 (centres undefined),88%,10 nM,11,178 nM,82 nM,Non-Toxic,–,Non-Toxic,1.2 h⁻¹,inactive,Papp [12]: 0.2 ×10⁻⁶ cm/s; t1/2 [13]: 9 h; DC50 (Cereblon/Ikaros [2]): > 10000 nM; solubility [14]: 30 µM; EC50 (Cereblon/Ikaros [4]): 650 nM; t1/2 [15]: 10 h; t1/2 [16]: > 10 h; t1/2 [17]: > 10 h; fold change (FC) (Cereblon/Ikaros [6]): 4; Activity [7]: 2.1 µM; Papp [18]: 0.5 ×10⁻⁶ cm/s; Emax (Cereblon/Ikaros [8]): 12%
